Values joined by “and” are separate entries in the source; they are usually repeats but may differ in a detail not shown here. Equal entries are not always repeated.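 Compound exposure: 48 hours, 5 concentrations, 96-well plates. Here, GI50 denotes the concentration required for 50% inhibition of growth. TGI: total growth inhibition.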 Where only a bound is given, the exact number is not on record here.

The subject of the first test is CAKI-1 renal. The test can be described thus: inhibition of tumour cell growth, NCI panel, 48 h.
As for `CNC(=O)c1cc2c(Oc3ccc(NC(=O)C4(C(=O)Nc5ccc(F)cc5)CC4)cc3)ccnc2cc1OC`, the GI50 was 1.52 µM and the TGI is 3.33 µM.
Turning to `Cc1cc(N(CCC#N)CCC#N)ccc1/C=C1N=C(/C=C/c2ccccc2)OC(=O)N\1`, the TGI was more than 100 µM.
On to `O=S1(=O)NCCCN1CCNc1nccc(-c2c(-c3cccc(O)c3)nc3sccn23)n1`, for which the GI50 was 17.4 µM and the TGI was more than 94 µM.
The corresponding values for `O=C(c1ccc2ccccc2c1)c1c(C(F)(F)F)n([O-])c2ccc(Cl)cc2[n+]1=O` are 1.63 µM and 3.01 µM.
In turn, `CC(=O)OCC1OC(n2cc([N+](=O)[O-])c(=O)[nH]c2=O)C(OC(C)=O)C(OC(C)=O)C1OC(C)=O` (configuration not stated) yielded a TGI of more than 100 µM.
The same measure, in the same setting: the figure for `O=C1C=C(O)c2[nH]c(=O)ccc2C1=O` is more than 100 µM.
For `NC(=O)c1cccc(Nc2nccc(Nc3cccc(F)c3)n2)c1`, the GI50 is 7.24 µM and the TGI is more than 25 µM.
As for `CCN(CC)CCNC(=O)c1c(C)[nH]c(/C=C2\C(=O)Nc3ccc(F)cc32)c1C`, the GI50 is 1.07 µM and 1.04 µM and 0.794 µM; the TGI was > 10 µM and 20 µM and 6.77 µM.
For the molecule `CCN(CC)CC(=O)N1CCc2c([nH]c3ccccc23)C1c1cccnc1` (configuration not stated), the TGI is more than 100 µM.
As to `CCOC1Oc2ccccc2-c2oc(=O)c(Sc3ccc(C)cc3)cc21` (configuration not stated), the GI50 is 35.4 µM and the TGI was more than 100 µM.
The corresponding values for `CC1CCCc2c1nn(C(=O)/C=C(\N)c1ccccc1)c2N` (configuration not stated) are 4.11 µM and 15.4 µM.
For the molecule `O=c1c(Cl)c(Cl)cnn1CCc1ccncc1`, the TGI worked out at 3.99 µM.
The same measure, in the same setting: the figure for `Cc1ccc(S(=O)(=O)N/N=C(\c2nc3ccc([N+](=O)[O-])cc3[nH]c2=O)C(O)c2ccccc2Cl)cc1` (configuration not stated) is more than 100 µM.
In the case of `COc1ccc(CC(C)C(C)Cc2ccc(OC)c(OC)c2)cc1OC` (configuration not stated), the GI50 is more than 1400 µM and the TGI was more than 1400 µM.
As for `Cc1ccc2c(c1)Sc1ccc(N=NN(C)C)cc1N2C`, the TGI was more than 100 µM.
The same measure, in the same setting: the figure for `O=C1C2=C(c3ccccc31)C(c1ccccc1Cl)N1C(=O)CCSC1=N2` (configuration not stated) is more than 100 µM.
For the molecule `Cc1ncc(C(=O)Nc2ccc(CN3CCN(C)CC3)c(C(F)(F)F)c2)cc1C#Cc1cnc(NC2CC2)c2ncccc12`, the GI50 was 1.66 µM and the TGI was found to be 3.47 µM.
For `Cc1ccc2nc3c(Cl)c(C)c(=O)cc-3sc2c1` the same measures were more than 100 µM and more than 100 µM.
In turn, `O=C/C(=C(/Cl)c1ccc(O)cc1)c1ccccc1` yielded a TGI of more than 56.8 µM.

In another test the test system is EKVX NSCLC. The experiment in a line: inhibition of tumour cell growth, NCI panel, 48 h.
Turning to `CNC(=O)c1cc2c(Oc3ccc(NC(=O)C4(C(=O)Nc5ccc(F)cc5)CC4)cc3)ccnc2cc1OC`, the GI50 is 3.39 µM and the TGI is more than 100 µM.
For `Cc1cc(N(CCC#N)CCC#N)ccc1/C=C1N=C(/C=C/c2ccccc2)OC(=O)N\1`, the TGI is more than 100 µM.
For the molecule `O=S1(=O)NCCCN1CCNc1nccc(-c2c(-c3cccc(O)c3)nc3sccn23)n1`, the GI50 is 61.3 µM and the TGI is more than 100 µM.
The corresponding values for `O=C(c1ccc2ccccc2c1)c1c(C(F)(F)F)n([O-])c2ccc(Cl)cc2[n+]1=O` are 1.74 µM and 3.17 µM.
`CC(=O)OCC1OC(n2cc([N+](=O)[O-])c(=O)[nH]c2=O)C(OC(C)=O)C(OC(C)=O)C1OC(C)=O` (configuration not stated) displayed a TGI of more than 100 µM.
The same measure, in the same setting: with `O=C1C=C(O)c2[nH]c(=O)ccc2C1=O` the figure was more than 100 µM.
`NC(=O)c1cccc(Nc2nccc(Nc3cccc(F)c3)n2)c1`: the GI50 was 12.3 µM and the TGI was more than 25 µM.
On to `CCN(CC)CCNC(=O)c1c(C)[nH]c(/C=C2\C(=O)Nc3ccc(F)cc32)c1C`, for which the GI50 was > 10 µM and 5.27 µM and 8.38 µM; the TGI was > 10 µM and 20 µM and 21.9 µM.
Consider `CCN(CC)CC(=O)N1CCc2c([nH]c3ccccc23)C1c1cccnc1` (configuration not stated), for which the TGI was more than 100 µM.
For the molecule `CCOC1Oc2ccccc2-c2oc(=O)c(Sc3ccc(C)cc3)cc21` (configuration not stated), the GI50 is 42.8 µM and the TGI was more than 100 µM.
The corresponding values for `CC1CCCc2c1nn(C(=O)/C=C(\N)c1ccccc1)c2N` (configuration not stated) are 16.5 µM and 44.1 µM.
In the case of `O=c1c(Cl)c(Cl)cnn1CCc1ccncc1`, the TGI turned out to be 36.2 µM.
The same measure, in the same setting: the figure for `Cc1ccc(S(=O)(=O)N/N=C(\c2nc3ccc([N+](=O)[O-])cc3[nH]c2=O)C(O)c2ccccc2Cl)cc1` (configuration not stated) is more than 100 µM.
Consider `COc1ccc(CC(C)C(C)Cc2ccc(OC)c(OC)c2)cc1OC` (configuration not stated), for which the GI50 is 986 µM and the TGI was more than 1400 µM.
With `Cc1ccc2c(c1)Sc1ccc(N=NN(C)C)cc1N2C`, the TGI is more than 100 µM.
As to `O=C1C2=C(c3ccccc31)C(c1ccccc1Cl)N1C(=O)CCSC1=N2` (configuration not stated), the TGI was more than 100 µM.
As for `Cc1ncc(C(=O)Nc2ccc(CN3CCN(C)CC3)c(C(F)(F)F)c2)cc1C#Cc1cnc(NC2CC2)c2ncccc12`, the GI50 is 0.659 µM and the TGI worked out at 1.21 µM.
The corresponding values for `Cc1ccc2nc3c(Cl)c(C)c(=O)cc-3sc2c1` are 63.3 µM and more than 100 µM.
As to `O=C/C(=C(/Cl)c1ccc(O)cc1)c1ccccc1`, the TGI is more than 75.7 µM.

Another test has as its system HT29 colon. The experiment in a line: inhibition of tumour cell growth, NCI panel, 48 h.
As to `CNC(=O)c1cc2c(Oc3ccc(NC(=O)C4(C(=O)Nc5ccc(F)cc5)CC4)cc3)ccnc2cc1OC`, the GI50 was 2420 nM and the TGI is more than 100 µM.
Turning to `Cc1cc(N(CCC#N)CCC#N)ccc1/C=C1N=C(/C=C/c2ccccc2)OC(=O)N\1`, the TGI is more than 100 µM.
Take `O=S1(=O)NCCCN1CCNc1nccc(-c2c(-c3cccc(O)c3)nc3sccn23)n1`: the GI50 is 7650 nM and the TGI was more than 100 µM.
For `O=C(c1ccc2ccccc2c1)c1c(C(F)(F)F)n([O-])c2ccc(Cl)cc2[n+]1=O` the same measures were 1520 nM and 2.93 µM.
Consider `CC(=O)OCC1OC(n2cc([N+](=O)[O-])c(=O)[nH]c2=O)C(OC(C)=O)C(OC(C)=O)C1OC(C)=O` (configuration not stated), for which the TGI was more than 100 µM.
`O=C1C=C(O)c2[nH]c(=O)ccc2C1=O` yielded a TGI of more than 100 µM.
In the case of `NC(=O)c1cccc(Nc2nccc(Nc3cccc(F)c3)n2)c1`, the GI50 is 6980 nM and the TGI is more than 25 µM.
Turning to `CCN(CC)CCNC(=O)c1c(C)[nH]c(/C=C2\C(=O)Nc3ccc(F)cc32)c1C`, the GI50 was 1070 nM and 1300 nM and 1540 nM; the TGI is 5.21 µM and 4.99 µM and 3.69 µM.
`CCN(CC)CC(=O)N1CCc2c([nH]c3ccccc23)C1c1cccnc1` (configuration not stated) had a TGI of more than 100 µM.

Source of the values: PubChem BioAssay (NCI).
